Experimental data taken from patent publication US20260241046A1, “PROSTATE-SPECIFIC MEMBRANE ANTIGEN RECEPTOR-TARGETING RADIOPHARMACEUTICALS AND USES THEREOF” (Nuclidium AG, priority 2024, published 2026).

Key:
[1] = approved PET radiotracers, for comparison; cited from earlier work
[2] = Pharmacokinetics in healthy mice; assay type: in vivo
Method: The pharmacokinetics of the investigated radiopharmaceutical was evaluated in healthy female BALB/c mice from 1 to 24 hours. For the latest time points (12 and 24 hours), NODAGA-PSMA I&T was radiolabeled with ^64Cu obtained from the Tübingen University Hospital. The use of a different PET copper isotope is justified by the longer half-life of ^64Cu (t1/2=12.7 hours), which is more appropriate for tests that include delayed time points. Additionally, using an isotope from the same element ensures that the radiopharmaceutical retains its chemical and physical properties, guaranteeing consistency in the study. Mice were injected i.v. with 4 MBq (200 pmol) of [^61/64Cu]Cu-NODAGA-PSMA I&T diluted to 100 μL with saline solution. The data were combined with the results obtained from the groups of xenografts at 1 and 4 hours post-injection, as the biodistribution in nude mice was the same as in the healthy mice. The results are presented in Table 27 and are expressed as mean±standard deviation.

[3] = biological target: T1, PSMA (Homo sapiens, UniProt Q04609); experiment: Binding affinity (IC50), competition with [^125I]I-BAKuE on LNCaP cells; details: 0.2 nM [^125I]I-BAKuE, 1 hour on ice
T1 construct: endogenous in cells; host or cells: LNCaP
T1 sequence (Q04609 whole entry): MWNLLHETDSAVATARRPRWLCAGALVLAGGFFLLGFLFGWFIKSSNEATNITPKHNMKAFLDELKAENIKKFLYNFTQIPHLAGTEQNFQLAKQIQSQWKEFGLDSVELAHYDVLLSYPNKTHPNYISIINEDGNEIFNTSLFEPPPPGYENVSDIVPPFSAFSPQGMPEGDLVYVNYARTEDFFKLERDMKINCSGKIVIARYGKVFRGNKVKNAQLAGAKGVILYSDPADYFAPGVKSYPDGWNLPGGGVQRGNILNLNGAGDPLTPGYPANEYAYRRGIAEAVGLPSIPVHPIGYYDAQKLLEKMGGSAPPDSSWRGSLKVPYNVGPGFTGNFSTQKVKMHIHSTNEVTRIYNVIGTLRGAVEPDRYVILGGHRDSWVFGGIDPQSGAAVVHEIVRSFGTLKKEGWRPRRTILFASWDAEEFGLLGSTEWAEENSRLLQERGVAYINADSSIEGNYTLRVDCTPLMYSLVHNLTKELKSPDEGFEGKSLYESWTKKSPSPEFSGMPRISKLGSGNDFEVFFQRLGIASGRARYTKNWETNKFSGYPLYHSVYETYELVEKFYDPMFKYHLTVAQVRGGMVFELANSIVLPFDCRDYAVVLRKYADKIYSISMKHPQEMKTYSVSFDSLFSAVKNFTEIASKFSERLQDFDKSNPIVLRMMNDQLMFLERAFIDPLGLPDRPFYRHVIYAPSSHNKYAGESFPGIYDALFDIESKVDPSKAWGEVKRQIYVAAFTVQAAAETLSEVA
Method: The binding affinity of NODAGA-PSMA I&T was determined by measuring IC50 by labelling the precursor with natural copper (^natCu). […] The radioiodinated ((S)-1-carboxy-5-(4-(-^125I-iodo-benzamido) pentyl) carbamoyl)-L-glutamic acid ([^125I]I-BAKuE) was used as reference radioligand. The assay was performed on LNCaP cells, human prostate cancer cells characterized by high expression levels of PSMA.
^natCu-NODAGA-PSMA I&T was produced by dissolving NODAGA-PSMA I&T (0.7 μmol) in 0.30 mL of ammonium acetate (0.5 M, pH 8), followed by the addition of 0.15 mL CuCl2 in 0.05 M hydrochloric acid. The reaction mixture was incubated for 15 min at 95° C. The product was purified from unlabeled ^natCu using a SepPak Classic C18 cartridge (Waters, Eschborn, Germany), washed with water, and eluted with 2 mL methanol. After evaporation of methanol, the product was reconstituted in 0.3 mg/mL 30% (v/v) acetonitrile in water.
The assay was performed on LNCaP cells seeded in 24-well plates. The cells were incubated with increasing concentrations of ^natCu-NODAGA-PSMA I&T (ranging from 0.1 up to 100 nM) in the presence of 0.2 nM [^125]I-BAKuE. After 1 hour of incubation on ice, the unbound (free) [^125I]I-BAKuE was collected by removing the medium (EMEM EBS) and the cells were detached with 1 M sodium hydroxide for counting (bound radioligand). […]

[4] = Extended single-dose toxicity study (GLP); assay type: in vivo; details: both sexes, mouse, in vivo, iv, 5 mg/kg; single i.v. dose, CD-1 mice; read-out: no adverse effect level (NOAEL)
Method: (§1) The study was designed as an extended single-dose toxicity study in one rodent species and performed under GLP conditions. NODAGA-PSMA I&T toxicity was evaluated after intravenous administration on day 1 of the study, followed by an observation period of 2 weeks. 60 (30 males and 30 females) CD-1 mice were divided into one dose group and one control group. The test item was administered once by i.v. administration into the tail vein. In each of the two groups, (I) 10 male and 10 female animals were euthanized the day after dosing, (II) 5 male and 5 female recovery animals were kept for an observation period of 2 weeks after dosing to detect possible delayed occurrence or persistence of, or recovery from toxic effects.
(§2) The dose animals' group was injected with 5 mg/kg NODAGA-PSMA I&T in 5% dimethyl sulfoxide (application volume 5 mL/kg) as a vehicle. The control group underwent injection of the vehicle alone (5 mL/kg). The animals were observed daily for signs of toxicity and morbidity/mortality. All animals were sacrificed for necropsy. Blood was taken at the time of necropsies to analyze hematological and clinical biochemistry parameters and urine for urinalysis. The wet weight of a tissue subset was taken, and a set of organs/tissues was preserved. A complete histopathological evaluation of the tissues was performed on treated and control animals.

[5] = tested on: CD-1 mice; experiment: Extended single-dose toxicity study (GLP); assay type: in vivo
Method: as §1, §2

[6] = Storage of lyophilized precursor; assay type: physicochemical; details: lyophilized powder, kept at 25° C. for up to 14 days
[7] = 12 hours post-injection (^64Cu)
[8] = 24 hours post-injection (^64Cu)
[9] = 5 mg/kg i.v., CD-1 mice, transitory, non-adverse

In the case of `O=C(O)CC[C@H](NC(=O)N[C@@H](CCCCNC(=O)c1ccc([18F])nc1)C(=O)O)C(=O)O` [Pylarify], the Effective Dose [1] is listed as 0.017 mSv/MBq.
For `O=C([O-])CN1CCN(CC(=O)[O-])CCN([C@H](CCC(=O)N[C@H](Cc2ccc(O)c(I)c2)C(=O)N[C@H](Cc2ccccc2)C(=O)N[C@H](CCCCNC(=O)CCCCCCC(=O)NCCCC[C@H](NC(=O)N[C@@H](CCC(=O)O)C(=O)O)C(=O)O)C(=O)O)C(=O)O)CC1.[Cu+2]` [[^61/64Cu]Cu-NODAGA-PSMA I&T], the “Biodistribution healthy mice, Adrenal” value ([2]; 1 hour post-injection) was 14.38 ± 4.39 % AI/g, the “Biodistribution healthy mice, Blood” value ([2]; 1 hour post-injection) was 0.33 ± 0.09 % AI/g and the “Biodistribution healthy mice, Femur” value ([2]; 1 hour post-injection) was 2.48 ± 0.97 % AI/g. The “Biodistribution healthy mice, Heart” value ([2]; 1 hour post-injection) was 0.49 ± 0.12 % AI/g, the “Biodistribution healthy mice, Intestine” value ([2]; 1 hour post-injection) was 2.11 ± 0.85 % AI/g and the “Biodistribution healthy mice, Kidneys” value ([2]; 1 hour post-injection) was 124 ± 21 % AI/g. For the same molecule, the “Biodistribution healthy mice, Liver” value ([2]; 1 hour post-injection) was 1.12 ± 0.25 % AI/g, the “Biodistribution healthy mice, Lung” value ([2]; 1 hour post-injection) was 1.49 ± 0.45 % AI/g and the “Biodistribution healthy mice, Muscles” value ([2]; 1 hour post-injection) was 0.99 ± 0.30 % AI/g. For the same molecule, the “Biodistribution healthy mice, Pancreas” value ([2]; 1 hour post-injection) was 1.37 ± 0.90 % AI/g, the “Biodistribution healthy mice, Salivary glands” value ([2]; 1 hour post-injection) was 1.89 ± 0.28 % AI/g and the “Biodistribution healthy mice, Spleen” value ([2]; 1 hour post-injection) was 9.33 ± 3.81 % AI/g. The “Biodistribution healthy mice, Stomach” value ([2]; 1 hour post-injection) was 1.12 ± 0.15 % AI/g, the “Biodistribution healthy mice, Adrenal” value ([2]; 4 hours post-injection) was 7.31 ± 2.76 % AI/g and the “Biodistribution healthy mice, Blood” value ([2]; 4 hours post-injection) was 0.11 ± 0.03 % AI/g. The “Biodistribution healthy mice, Femur” value ([2]; 4 hours post-injection) was 1.34 ± 0.38 % AI/g, the “Biodistribution healthy mice, Heart” value ([2]; 4 hours post-injection) was 0.25 ± 0.06 % AI/g and the “Biodistribution healthy mice, Intestine” value ([2]; 4 hours post-injection) was 1.12 ± 0.48 % AI/g. The “Biodistribution healthy mice, Kidneys” value ([2]; 4 hours post-injection) was 94 ± 12 % AI/g, the “Biodistribution healthy mice, Liver” value ([2]; 4 hours post-injection) was 0.88 ± 0.25 % AI/g and the “Biodistribution healthy mice, Lung” value ([2]; 4 hours post-injection) was 0.68 ± 0.22 % AI/g. The “Biodistribution healthy mice, Muscles” value ([2]; 4 hours post-injection) was 0.45 ± 0.18 % AI/g, the “Biodistribution healthy mice, Pancreas” value ([2]; 4 hours post-injection) was 0.55 ± 0.16 % AI/g and the “Biodistribution healthy mice, Salivary glands” value ([2]; 4 hours post-injection) was 0.58 ± 0.12 % AI/g. The “Biodistribution healthy mice, Spleen” value ([2]; 4 hours post-injection) was 2.35 ± 1.45 % AI/g, the “Biodistribution healthy mice, Stomach” value ([2]; 4 hours post-injection) was 0.72 ± 0.15 % AI/g and the “Biodistribution healthy mice, Adrenal” value [2, 7] was 2.99 ± 0.93 % AI/g. The “Biodistribution healthy mice, Blood” value [2, 7] was 0.11 ± 0.01 % AI/g, the “Biodistribution healthy mice, Femur” value [2, 7] was 0.50 ± 0.10 % AI/g and the “Biodistribution healthy mice, Heart” value [2, 7] was 0.26 ± 0.05 % AI/g. The “Biodistribution healthy mice, Intestine” value [2, 7] was 0.94 ± 0.41 % AI/g, the “Biodistribution healthy mice, Kidneys” value [2, 7] was 60 ± 9 % AI/g and the “Biodistribution healthy mice, Liver” value [2, 7] was 0.96 ± 0.18 % AI/g. The “Biodistribution healthy mice, Lung” value [2, 7] was 0.52 ± 0.11 % AI/g, the “Biodistribution healthy mice, Muscles” value [2, 7] was 0.25 ± 0.05 % AI/g and the “Biodistribution healthy mice, Pancreas” value [2, 7] was 0.28 ± 0.04 % AI/g. The “Biodistribution healthy mice, Salivary glands” value [2, 7] was 0.39 ± 0.05 % AI/g, the “Biodistribution healthy mice, Spleen” value [2, 7] was 1.40 ± 0.57 % AI/g and the “Biodistribution healthy mice, Stomach” value [2, 7] was 0.52 ± 0.03 % AI/g. For the same molecule, the “accumulated activity in the kidneys” value ([2]; 24 hours post-injection) was under 20 % IA/g, the “Biodistribution healthy mice, Adrenal” value [2, 8] was 1.17 ± 0.22 % AI/g and the “Biodistribution healthy mice, Blood” value [2, 8] was 0.08 ± 0.01 % AI/g. For the same molecule, the “Biodistribution healthy mice, Femur” value [2, 8] was 0.20 ± 0.05 % AI/g, the “Biodistribution healthy mice, Heart” value [2, 8] was 0.21 ± 0.02 % AI/g and the “Biodistribution healthy mice, Intestine” value [2, 8] was 0.46 ± 0.11 % AI/g. For the same molecule, the “Biodistribution healthy mice, Kidneys” value [2, 8] was 16.1 ± 4.9 % AI/g, the “Biodistribution healthy mice, Liver” value [2, 8] was 0.84 ± 0.11 % AI/g and the “Biodistribution healthy mice, Lung” value [2, 8] was 0.32 ± 0.12 % AI/g. For the same molecule, the “Biodistribution healthy mice, Muscles” value [2, 8] was 0.08 ± 0.02 % AI/g, the “Biodistribution healthy mice, Pancreas” value [2, 8] was 0.17 ± 0.03 % AI/g and the “Biodistribution healthy mice, Salivary glands” value [2, 8] was 0.22 ± 0.05 % AI/g. For the same molecule, the “Biodistribution healthy mice, Spleen” value [2, 8] was 0.58 ± 0.15 % AI/g and the “Biodistribution healthy mice, Stomach” value [2, 8] was 0.31 ± 0.05 % AI/g.
Molecule `O=C(O)CC[C@H](NC(=O)N[C@@H](CCCCNC(=O)CCCCCCC(=O)NCCCC[C@@H](NC(=O)[C@@H](Cc1ccccc1)NC(=O)[C@@H](Cc1ccc(O)c(I)c1)NC(=O)CC[C@H](C(=O)O)N1CCN2CCN(CC1)CC(=O)[O][Cu][O]C(=O)C2)C(=O)O)C(=O)O)C(=O)O` [^natCu-NODAGA-PSMA I&T] has an IC50 [3] of 9.3 ± 1.8 nM.
In the case of `O=C([O-])CN(CCN(CC(=O)[O-])Cc1cc(CCC(=O)NCCCCCC(=O)NCCCC[C@H](NC(=O)N[C@@H](CCC(=O)O)C(=O)O)C(=O)O)ccc1[O-])Cc1cc(CCC(=O)O)ccc1[O-].[68Ga+3].[OH3+]` [[^68Ga]Ga-PSMA-11], the Effective Dose [1] is listed as 0.023 mSv/MBq.
For `O=C(O)CC[C@H](NC(=O)N[C@@H](CCCCNC(=O)CCCCCCC(=O)NCCCC[C@@H](NC(=O)[C@@H](Cc1ccccc1)NC(=O)[C@@H](Cc1ccc(O)c(I)c1)NC(=O)CC[C@H](C(=O)O)N1CCN(CC(=O)O)CCN(CC(=O)O)CC1)C(=O)O)C(=O)O)C(=O)O` [NODAGA-PSMA I&T, NODAGA-(I-y) fk (Sub-KuE)], the NOAEL at 2 weeks [4] was 5 mg/kg, the clinical tolerance ([5]; 5 mg/kg i.v., CD-1 mice) was “clinically well-tolerated” and the “effects on body weight gain or food consumption” value ([5]; 5 mg/kg i.v., CD-1 mice) was “No effects on body weight gain or food consumption were noted”. The “effects on organ weights” value ([5]; 5 mg/kg i.v., CD-1 mice) was “No adverse effects on organ weights were noted”, the “macroscopic or microscopic findings” value ([5]; 5 mg/kg i.v., CD-1 mice) was “No macroscopic or microscopic findings that could be attributed to treatment” and the “treatment-related mortality or acute adverse effect” value ([5]; 5 mg/kg i.v., CD-1 mice) was “no treatment-related mortality or acute adverse effect was registered”. The glucose level [5, 9] was “decrease in glucose level”, the platelet count [5, 9] was “decrease in platelet count” and the potassium level [5, 9] was “increase in potassium level”. For the same molecule, the safety ratio ([5]; versus intended average patient dose 0.4 μg/kg, with dose conversion factor) was 1000 times and the degradation on storage [6] was “no signs of degradation”.
